For this assay, the system named is YAP/TAZ-TEAD transcription. Kind of assay: Reporter gene assay for measuring the inhibition of YAP/TAZ-TEAD transcription (TEAD-responsive element luciferase reporter in Hek293T cells). The class given is cell-based. Particulars: Hek293T cells transiently transfected with TEAD-responsive element luciferase reporter, 24 hours incubation. As to the method: Hek293T cells are cultured in DMEM supplemented with 10% fetal bovine serum, Sodium pyruvate, Sodium bicarbonate, L-glutamine. The cells are harvested and transiently transfected with TEAD-responsive element luciferase reporter. Transfected cells are plated in 384-wells plate containing pre-diluted compounds. After 24 hours incubation at 37° C./5%CO2, assay plates were cooled down to RT and levelled to an equal volume per well, prior to the addition of 25 uL luciferase substrate SteadyLite (Perkin Elmer)/well. The plate was shaken for 10 min at 600 rpm, centrifuged for 1min at 500 rpm and measured with an Envision reader (PerkinElmer). The amount of relative light units produced by the TEAD reporter is used to calculated percent of inhibition.
The percent of reporter inhibition was calculated in the presence of a positive control inhibitor (100% inhibition) versus a condition with the presence of the vehicle basal activity of the reporter (0% inhibition). The ability of a test compound to inhibit this activity was determined as:
Percentage inhibition=[1-((RLU determined in the presence of vehicle—RLU determined for sample with test compound present) divided by (RLU determined in the presence of vehicle — RLU determined for sample with positive control inhibitor))] * 100
The activities of the example compounds tested are depicted in the table below. The activity ranges A, B and C refer to EC50 values in the reporter gene assay as described as follows: “A”: EC50 <1 μM; “B” : 1 μM≤EC50≤20 μM and “C” : EC50>20 μM, NT=not tested.

Each structure is given as a SMILES string.

Among the data in patent publication US20230279016A1, “Tetrahydropyrazolopyrimidines and Related Analogs for Inhibiting YAP/TAZ-TEAD” (THE KATHOLIEKE UNIVERSITEIT LEUVEN, priority 2021, published 2023) are EC50 values, retold here.

The term EC50 denotes the concentration giving half of the maximal effect. Read a high EC50 as a need for much substance. For the compound `C=CC(=O)NCC1CN(c2ccc(C(F)(F)F)cc2)c2cc(CC3CC3)nn2C1` (single isomer, unassigned) [Cpd. No. 032-En2, (R)- or (S)-N-((2-(cyclopropylmethyl)-4-(4-(trifluoromethyl)phenyl)-4,5,6,7-tetrahydropyrazolo[1,5-a]pyrimidin-6-yl)methyl)acrylamide], the concentration giving a half-maximal response (EC50) was < 1 µM.

With `C=CC(=O)N1CCC2(C1)CN(c1ccc(C(F)(F)F)cc1)c1ccnn1C2` (single isomer, unassigned) [Cpd. No. 088-En1, (R)- or (S)-1-(4-(4-(trifluoromethyl)phenyl)-4,5-dihydro-7H-spiro[pyrazolo[1,5-a]pyrimidine-6,3′-pyrrolidin]-1′-yl)prop-2-en-1-one], the EC50 was < 1 µM.

The compound `C=CC(=O)NCC1CN(S(=O)(=O)c2ccc(C(F)(F)F)cc2)c2ccnn2C1` (stereo not drawn) [Cpd. No. 045-En1, N-((4-((4-(trifluoromethyl)phenyl)sulfonyl)-4,5,6,7-tetrahydropyrazolo[1,5-a]pyrimidin-6-yl)methyl)acrylamide] gave a concentration giving a half-maximal response (EC50) of 1 to 20 µM.

Regarding `C=CC(=O)NCC1CN(c2ccc(OC(F)(F)F)cc2)c2cc(C(F)(F)F)nn2C1` (single isomer, unassigned) [Cpd. No. 035-En1, (R)- or (S)-N-((4-(4-(trifluoromethoxy)phenyl)-2-(trifluoromethyl)-4,5,6,7-tetrahydropyrazolo[1,5-a]pyrimidin-6-yl)methyl)acrylamide], the EC50 (Homo sapiens, HEK-293T, 24 h) is < 1 µM.

For `C=CC(=O)NCC1CN(c2ccc(F)cc2)c2ccnn2C1` (single isomer, unassigned) [Cpd. No. 006-En2, (R)- or (S)-N-((4-(4-fluorophenyl)-4,5,6,7-tetrahydropyrazolo[1,5-a]pyrimidin-6-yl)methyl)acrylamide], the half-maximal effective concentration (EC50) is < 1 µM.

Turning to `CNC(=O)C1CN(c2ccc(C(F)(F)F)cc2)c2ccnn2C1` (stereo not drawn) [Cpd. No. 092, N-methyl-4-(4-(trifluoromethyl)phenyl)-4,5,6,7-tetrahydropyrazolo[1,5-a]pyrimidine-6-carboxamide], under “Homo sapiens, HEK-293T, 24 h”, the EC50 is > 20 µM.

Regarding `C=CC(=O)NCC1CN(c2ccc(Br)cc2)c2ccnn2C1` (single isomer, unassigned) [Cpd. No. 021-En1, (R)- or (S)-N-((4-(4-bromophenyl)-4,5,6,7-tetrahydropyrazolo[1,5-a]pyrimidin-6-yl)methyl)acrylamide], the EC50 (Homo sapiens, HEK-293T, 24 h) is < 1 µM.

Regarding `C=CC(=O)NCC1CN(c2ccc(F)cc2)c2ccnn2C1` (stereo not drawn) [Cpd. No. 006, N-((4-(4-fluorophenyl)-4,5,6,7-tetrahydropyrazolo[1,5-a]pyrimidin-6-yl)methyl)acrylamide], the EC50 (Homo sapiens, HEK-293T, 24 h) is < 1 µM.

Compound `Cn1cc2c(n1)CC(CNS(C)(=O)=O)CN2c1ccc(C(F)(F)F)cc1` (stereo not drawn) [Cpd. No. 077, N-((2-methyl-4-(4-(trifluoromethyl)phenyl)-4,5,6,7-tetrahydro-2H-pyrazolo[4,3-b]pyridin-6-yl)methyl)methanesulfonamide] yielded an EC50 (Homo sapiens, HEK-293T, 24 h) of 1 to 20 µM.

With `C=CC(=O)NCC1CN(c2ccc(C(F)(F)F)cc2)c2ccnn2C1` (single isomer, unassigned) [Cpd. No. 002-En2, (R)- or (S)-N-((4-(4-(trifluoromethyl)phenyl)-4,5,6,7-tetrahydropyrazolo[1,5-a]pyrimidin-6-yl)methyl)acrylamide], the EC50 was < 1 µM.

On to `C=CC(=O)NCC1CN(c2ccn(C)c(=O)c2)c2ccnn2C1` (single isomer, unassigned) [Cpd. No. 024-En2, (R)- or (S)-N-((4-(1-methyl-2-oxo-1,2-dihydropyridin-4-yl)-4,5,6,7-tetrahydropyrazolo[1,5-a]pyrimidin-6-yl)methyl)acrylamide], for which the 50% effective concentration (EC50) was > 20 µM.

Regarding `C=CC(=O)NCC1CN(c2ccc(C(F)F)nc2)c2ccnn2C1` (stereo not drawn) [Cpd. No. 010, N-((4-(6-(difluoromethyl)pyridin-3-yl)-4,5,6,7-tetrahydropyrazolo[1,5-a]pyrimidin-6-yl)methyl)acrylamide], the EC50 was < 1 µM.
